17 molecules from patent US20230399312A1, “SUBSTITUTED PYRIMIDINES AND METHODS OF USE” (THERAVANCE BIOPHARMA R&D IP, LLC, priority 2020, published 2023) can be followed below.

Test [1] addresses T1, recombinant human ALK5 (TGF-βR1) protein (Homo sapiens, UniProt P36897).
T1 construct: purchased Life Technologies PR9075A
T1 sequence (P36897 34-503): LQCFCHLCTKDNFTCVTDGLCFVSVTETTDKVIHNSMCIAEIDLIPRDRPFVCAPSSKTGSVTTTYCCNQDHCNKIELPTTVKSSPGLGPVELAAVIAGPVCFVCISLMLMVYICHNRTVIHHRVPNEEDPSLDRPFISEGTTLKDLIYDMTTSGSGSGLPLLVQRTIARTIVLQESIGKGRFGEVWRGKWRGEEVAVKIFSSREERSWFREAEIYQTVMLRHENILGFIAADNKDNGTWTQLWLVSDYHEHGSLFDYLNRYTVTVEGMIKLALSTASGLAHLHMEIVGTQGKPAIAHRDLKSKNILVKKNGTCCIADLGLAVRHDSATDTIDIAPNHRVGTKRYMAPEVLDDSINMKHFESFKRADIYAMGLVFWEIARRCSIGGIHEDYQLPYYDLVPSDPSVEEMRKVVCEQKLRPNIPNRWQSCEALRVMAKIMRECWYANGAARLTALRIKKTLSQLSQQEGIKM
Kind of test: Biochemical ALK5 (TGF-βR1) assay to measure pKi (LANCE Ultra ULight kinase assay). Particulars: apparent pKi, converted from pIC50 by Cheng-Prusoff. On the procedure: The assays were performed in a 384-well plate (24 columns×16 wells/rows). An Echo®550 Liquid Handler (Labcyte) was used to prepare various intermediate concentrations of compounds of the present disclosure in 100% DMSO. From the intermediate concentrations, a range of concentrations (from […] to 25 μM corresponding to volumes up to 105 nL) were prepared and ejected into a final assay plate to be used to create individual dose response curves for each of the subject compounds. To a separate column within the assay plate, 105 nL of DMSO in each well was used to establish a maximum assay signal. Additionally, 105 nL of 100 μM SD-208, a selective TGF-βR1 inhibitor (Catalog #S7624, Selleck Chemicals), was used in another column of wells to establish a minimal assay signal.
With a multidrop dispenser, 8 μL of enzyme mixture (1.25× final) was added to each well. […] The plate was then sealed with an adhesive seal and allowed to equilibrate for 60 minutes at room temperature.
Next, 2 μL of 125 μM ATP (5×final, 125 μM ATP prepared in assay buffer with 2 mM DTT) was added to the incubated mixtures, covered with a MicroClime® Environmental Lid (Product No. LLS-0310, Labcyte) and immediately transferred to 37° C. The reactions were allowed to proceed at 37° C. for 60 minutes before terminating with the addition of 10 μL of detection antibody (LANCE® (lanthanide chelate excite) Ultra Europium-anti-phospo-DNA Topoisomerase 2-alpha (Thr1342)) in detection mixture (12 mM EDTA, 4 nM detection antibody prepared in detection buffer (50 mM Tris-HCl, 150 mM NaCl, 0.5% BSA (Fraction V), pH 7.0)) at room temperature. The plate was then read on a Perkin Elmer EnVision Plate Reader using europium specific reader settings with excitation and emission wavelengths set to 320 or 340 nm and 665 nm, respectively.
For dose-response analyses, percent inhibition versus compound concentrations were plotted, and pIC50 values were determined from a 4-parameter robust fit model with GraphPad Prism V5 Software (GraphPad Software, Inc., La Jolla, CA). This model obtains pIC50 values by fitting the sigmoidal dose-response (variable slope) equation to the data. Results were expressed as pIC50 (negative logarithm of IC50) and subsequently converted to pKi (negative logarithm of dissociate constant, Ki) using the Cheng-Prusoff equation. The higher the value of pKi (lower value of Ki), the greater the inhibition of ALK5 activity.
A general note: Time-resolved FRET reads energy transfer from a long-lived donor to a nearby acceptor.

Test [2] concerns TGF-β-stimulated SMAD3 phosphorylation in BEAS-2B cells. As to the kind of experiment: Cellular ALK5 potency assay, inhibition of TGF-β stimulated pSMAD3 formation in BEAS-2B cells. The test is classed as cell-based. The conditions noted are these: Homo sapiens, pSMAD3, TGF-β 10 ng/mL, read-out: BEAS2B pIC50 (converted). On the procedure: The potency of compounds of the present disclosure for inhibition of TGF-β-stimulated SMAD3 phosphorylation was measured in BEAS-2B cells, a human lung epithelial cell line. TGF-β signals through activin receptor-like kinase 5 (ALK5) immediately prior to SMAD3 phosphorylation.
BEAS-2B cells were grown using 50% DMEM (Life Technologies) and 50% F-12 (Life Technologies) media, supplemented with 10% Fetal Bovine Serum (ATCC), 25 mM HEPES (Life Technologies), and 1×Pen-Strep (Life Technologies). Cells were cultured in a humidified incubator set at 37° C., 5% CO2, and trypsonized using 0.25% Trypsin with 0.5% polyvinylpyrrolidone (PVP).
For the assay, BEAS-2B cells were seeded at 7,500 cells/well (25 μL/well) in a 384-well plate and cultured overnight. Before dosing, growth media was aspirated and the wells were rinsed with HBSS Buffer (HBSS with Calcium and Magnesium, Life Technologies) supplemented with 25 mM HEPES (Life Technologies) and 1% Bovine Serum Albumin (Roche). Compounds were serially diluted in DMSO, then further diluted with supplemented HBSS Buffer (50 μL/well) to create a compound plate 3× of the final assay concentration, at 0.3% DMSO. The diluted compounds were then added to the cells (8 μL/well) and incubated at 37° C., 5% CO2 for 1 hour. After the compound incubation, TGF-β (R&D Systems) reconstituted in supplemented HBSS Buffer was added to the cells ([…], final concentration 10 ng/mL) and incubated for a further 30 minutes, after which the cells were immediately lysed with AlphaLISA lysis buffer (PerkinElmer). AlphaLISA Acceptor and Detector beads (PerkinElmer) were added 2 hours apart, then incubated overnight to be read the next day. The potency of the compound was determined through analysis of dose-dependent quantified changes in pSMAD3 signal from baseline (non-compound treated TGF-β stimulated cells). Data are expressed as pIC50 (negative decadic logarithm IC50) values.

For the molecule `Cc1cccc(-c2nccc(Nc3ccnc(Nc4cnn(CC5CNC5)c4)n3)n2)n1` [Compound 181, N2-[1-(azetidin-3-ylmethyl)pyrazol-4-yl]-N4-[2-(6-methyl-2-pyridyl)pyrimidin-4-yl]pyrimidine-2,4-diamine], the Ki in test [1] was 0.0398 to 0.316 nM. Also, in test [2], the IC50 was 200 to 1260 nM.

`Cc1cccc(-c2nccc(Nc3ccnc(Nc4ccc(NS(=O)(=O)c5c[nH]cn5)cc4)n3)n2)n1` [Compound 455, N-[4-[[4-[[2-(6-methyl-2-pyridyl)pyrimidin-4-yl]amino]pyrimidin-2-yl]amino]phenyl]-1H-imidazole-4-sulfonamide]: in test [1], the Ki was 0.398 to 3.16 nM. Also, the IC50 in test [2] is 200 to 1260 nM.

Regarding `CNCCN1CCN(c2ccc(Nc3nccc(Nc4ccnc(-c5cccc(C)n5)n4)n3)cc2)CC1` [Compound 483, N2-[4-[4-[2-(methylamino)ethyl]piperazin-1-yl]phenyl]-N4-[2-(6-methyl-2-pyridyl)pyrimidin-4-yl]pyrimidine-2,4-diamine], the Ki in test [1] is 0.0398 to 0.316 nM. The IC50 in test [2] was 200 to 1260 nM.

For the molecule `Cc1cccc(-c2nccc(Nc3ccnc(Nc4ccc(C(=O)OCCN5CCNCC5)nc4)n3)n2)n1` [Compound 552, 2-piperazin-1-ylethyl 5-[[4-[[2-(6-methyl-2-pyridyl)pyrimidin-4-yl]amino]pyrimidin-2-yl]amino]pyridine-2-carboxylate], the Ki in test [1] was 0.0398 to 0.316 nM. Further, in test [2], the IC50 is 25.1 to 158 nM.

On to `COC(=O)C1CN(CCNc2ccc(Nc3nccc(Nc4ccnc(-c5cccc(C)n5)n4)n3)cc2)CCN1` (stereo not shown) [Compound 369, methyl 4-[2-[4-[[4-[[2-(6-methyl-2-pyridyl)pyrimidin-4-yl]amino]pyrimidin-2-yl]amino]anilino]ethyl] piperazine-2-carboxylate], for which the Ki in test [1] was 0.398 to 3.16 nM. Moreover, in test [2], the IC50 is 25.1 to 158 nM.

In the case of `Cc1cccc(-c2nccc(Nc3ccnc(Nc4ccc(CN5CCC(C(=O)O[C@@H]6CCNC6)CC5)cc4)n3)n2)n1` [Compound 313, [(3R)-pyrrolidin-3-yl] 1-[[4-[[4-[[2-(6-methyl-2-pyridyl)pyrimidin-4-yl]amino]pyrimidin-2-yl]amino]phenyl]methyl] piperidine-4-carboxylate], in test [1], the Ki was 0.0398 to 0.316 nM. Besides, in test [2], the IC50 was 25.1 to 158 nM.

For the molecule `Cc1cccc(-c2nccc(Nc3ccnc(Nc4ccc(NCC5(O)CNC5)cc4)n3)n2)n1` [Compound 490, 3-[[4-[[4-[[2-(6-methyl-2-pyridyl)pyrimidin-4-yl]amino]pyrimidin-2-yl]amino]anilino]methyl] azetidin-3-ol], the Ki in test [1] was 0.0398 to 0.316 nM. In addition, in test [2], the IC50 was 25.1 to 158 nM.

Take `Fc1cc(F)c(-c2nccc(Nc3ccnc(Nc4ccc(N5CCNCC5)cc4)n3)n2)cc1Cl` [Compound 556, N4-(2-(5-chloro-2,4-difluorophenyl)pyrimidin-4-yl)-N2-(4-(piperazin-1-yl)phenyl)pyrimidine-2,4-diamine]: in test [1], the Ki was 0.0398 to 0.316 nM. In test [2], the IC50 was 25.1 to 158 nM.

As to `Cc1cccc(-c2nccc(Nc3ccnc(Nc4cccc(S(=O)(=O)NCCN)c4)n3)n2)n1` [Compound 430, N-(2-aminoethyl)-3-[[4-[[2-(6-methyl-2-pyridyl)pyrimidin-4-yl]amino]pyrimidin-2-yl]amino]benzenesulfonamide], in test [1], the Ki is 0.0398 to 0.316 nM. Also, the IC50 in test [2] is 25.1 to 158 nM.

For the molecule `Cc1cccc(-c2nccc(Nc3ccnc(Nc4ccc(N5CCN(C(CCO)C(=O)O)CC5)cc4)n3)n2)n1` (stereo not shown) [Compound 448, 4-hydroxy-2-[4-[4-[[4-[[2-(6-methyl-2-pyridyl)pyrimidin-4-yl]amino]pyrimidin-2-yl]amino]phenyl]piperazin-1-yl]butanoic acid], the Ki in test [1] is 0.0398 to 0.316 nM. The IC50 in test [2] is 25.1 to 158 nM.

With `Cc1cccc(-c2nccc(Nc3ccnc(Nc4ccc(CN5CCN(CC(C)C)CC5)cc4)n3)n2)n1` [Compound 533, N2-[4-[(4-isobutylpiperazin-1-yl)methyl]phenyl]-N4-[2-(6-methyl-2-pyridyl)pyrimidin-4-yl]pyrimidine-2,4-diamine], in test [1], the Ki is 0.0398 to 0.316 nM. Further, the IC50 in test [2] was 25.1 to 158 nM.

In the case of `Cc1ccc(O)cc1-c1nccc(Nc2ccnc(Nc3ccc(N4CCC(N5CCN(C)CC5)CC4)cc3)n2)n1` [Compound 255, 4-methyl-3-(4-((2-((4-(4-(4-methylpiperazin-1-yl)piperidin-1-yl)phenyl)amino)pyrimidin-4-yl)amino)pyrimidin-2-yl)phenol], the Ki in test [1] is 0.398 to 3.16 nM. Besides, in test [2], the IC50 was 25.1 to 158 nM.

On to `Cc1cccc(-c2nccc(Nc3ccnc(Nc4ccc(C(=O)O[C@H]5CCNC5)cn4)n3)n2)n1` [Compound 575, [(3S)-pyrrolidin-3-yl] 6-[[4-[[2-(6-methyl-2-pyridyl)pyrimidin-4-yl]amino]pyrimidin-2-yl]amino]pyridine-3-carboxylate], for which the Ki in test [1] is 3.98 to 31.6 nM. In addition, the IC50 in test [2] is 200 to 1260 nM.

With `Cc1cccc(-c2nccc(Nc3ccnc(Nc4ccc(NS(=O)(=O)N5CCNCC5)cc4)n3)n2)n1` [Compound 93, N-[4-[[4-[[2-(6-methyl-2-pyridyl)pyrimidin-4-yl]amino]pyrimidin-2-yl]amino]phenyl]piperazine-1-sulfonamide], in test [1], the Ki is 0.0398 to 0.316 nM. In test [2], the IC50 is 200 to 1260 nM.

On to `COC(=O)[C@H]1CN(c2ccc(Nc3nccc(Nc4ccnc(-c5cccc(C)n5)n4)n3)cc2)CCN1` [Compound 172, methyl (2R)-4-[4-[[4-[[2-(6-methyl-2-pyridyl)pyrimidin-4-yl]amino]pyrimidin-2-yl]amino]phenyl]piperazine-2-carboxylate], for which, in test [1], the Ki was 0.0398 to 0.316 nM. Besides, in test [2], the IC50 was 25.1 to 158 nM.

As to `Cc1cccc(-c2nccc(Nc3ccnc(Nc4cccc(C(=O)O[C@@H]5CCNC5)c4)n3)n2)n1` [Compound 459, [(3R)-pyrrolidin-3-yl] 3-[[4-[[2-(6-methyl-2-pyridyl)pyrimidin-4-yl]amino]pyrimidin-2-yl]amino]benzoate], the Ki in test [1] is 0.398 to 3.16 nM. In addition, the IC50 in test [2] was 25.1 to 158 nM.

`Cc1cccc(-c2nccc(Nc3ccnc(Nc4cccc(N5CCNCC5)c4)n3)n2)n1` [Compound 322, N4-[2-(6-methyl-2-pyridyl)pyrimidin-4-yl]-N2-(3-piperazin-1-ylphenyl)pyrimidine-2,4-diamine]: the Ki in test [1] is 0.0398 to 0.316 nM. Besides, the IC50 in test [2] was 25.1 to 158 nM.
